# Results as given in paper PMC2193175 (The Journal of Experimental Medicine, 2000).
# Where two headings read alike, the source gives them in different places.
# Experiments:
# [1] = target: T1, cysteine-rich domain of the murine macrophage mannose receptor (Cys-MR) (Mus musculus, UniProt Q61830); experiment: microwell inhibition of Cys-MR-Fc binding to immobilized human lutropin
# T1 sequence (Q61830 20-154): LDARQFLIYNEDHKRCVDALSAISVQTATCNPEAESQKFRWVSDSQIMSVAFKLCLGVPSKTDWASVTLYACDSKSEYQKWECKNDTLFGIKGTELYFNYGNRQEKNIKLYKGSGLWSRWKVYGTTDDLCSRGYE
# [2] = target: T1, cysteine-rich domain of the murine macrophage mannose receptor (Cys-MR); experiment: as above; remark: listed apart in the source
IC50 [1],IC50 [2],SMILES
180 µM,–,CC(=O)N[C@H]1C(O)O[C@H](CO)[C@H](OS(=O)(=O)O)[C@@H]1O (some centres unmarked) [4-sulfated N-acetylgalactosamine]
–,1300 µM,CC(=O)N[C@H]1C(O)O[C@H](COS(=O)(=O)O)[C@H](O)[C@@H]1O (some centres unmarked) [6-sulfated N-acetylgalactosamine]
